Assay results as given in PMC12856912, “Structure-Guided Semisynthesis of Blasticidin S–Amicetin Chimeras as Selective Ribosome Inhibitors” (Journal of the American Chemical Society, 2026).
In brackets after ≈: the same amount, converted by molar mass.

Legend:
[1] = test system: S. aureus ΔNorA; test: Antibacterial MIC assay, serial dilution; assay type: cell-based, Staphylococcus aureus; conditions: for Selectivity index (CC50/MIC) S. aureus ΔNorA: CC50 Vero cells / MIC; for MIC: Staphylococcus aureus, read-out: MIC S. aureus ∆NorA
Protocol: (§1) Media and solutions were autoclaved or sterile filtered prior to use and mani pulations were carri ed out in a laminar flow hood. Antibacterial t esting was performed in polypropylene 96-well flat bottom plates. The minimal inhibitory concentration of blasticidin S (1) hydrochloride, methyl ester (3) trihydrochloride, P10 (2) tri-T FA , phenet hyl amide (4) tri -T FA , an d blastimidines M 19– 22, A, 29–32, P 37–40, and C 43–46 (salt forms as described in the te xt) were assessed against Staphylococcus aureus ΔNorA, S. aureus ATCC 6538P, methicillin-resistant S. aureus (MRSA) ATCC 43300, Enterococcus faecalis ATCC 29212, vancomycin- resistant Enterococcus, Klebsiella pneumoniae ATCC 29665, Pseudomonas aeruginosa,and Acinetobacter baumannii ATCC 17978 using serial dilutions. Doxycycline (Gold Bio) as a positive control and the vehicle as a negative control. Stock solutions of each compound were prepared at 2.56 mg/mL in 50% DMSO/water and serially diluted in 50% DMSO/water to create master plates. From the master plates, 10 μ L o f each dilution was applied to test plates using a Bravo automated liquid transfer system (Agilent).
(§2) Bacteria previously grown overnight (37 °C, 120–200 RPM), in LB broth were diluted to an OD600 of 0.05 in cation-adjusted Mueller-Hinton broth (CAMHB), grown to an OD600 of ~0.5, and diluted to an OD600 of 0.004 in CAMHB . These diluted cultures were applied to the test plates (190 μL per test well) resulting in final concentrations of the test compounds of 128–1 μg/ m L.
(§3) Growth controls (wells with inoculated media but no vehicle or test compounds) were included to assess any potential toxicity from the vehicle. Th e plates were in cubated at 37 °C for 16–18 h, except fo r VRE and E. faecalis, which w ere in cub ated at 37 °C fo r 24 h. Inh ibition was determined by measuring the optical density at 600 nm (OD60 0) with a Cytation 3 pl ate read er (BioTek). The optical density measurem ents were no rmalized to the positive and negative controls and the vehicle and growth controls were compared and found to b e indistinguishable, indicating no toxicity from […]
(§4) the vehicle used. The MIC was the lowest concentration that inhibited >90% of growth. Two biological replicates were performed in duplicate. MIC values are reported as a range from […]

[2] = test system: S. aureus ATCC 6538P; test: Antibacterial MIC assay, serial dilution; assay type: cell-based, Staphylococcus aureus; conditions: for Selectivity index (CC50/MIC) S. aureus 6538P: CC50 Vero cells / MIC; for MIC: Staphylococcus aureus, ATCC 6538P / ATCC 6539P, read-out: MIC S. aureus ATCC 6539P
Protocol: as §1, §2, §3, §4

[3] = test system: MRSA ATCC 43300; test: Antibacterial MIC assay, serial dilution; assay type: cell-based, Staphylococcus aureus; conditions: for Selectivity index (CC50/MIC) MRSA 43300: CC50 Vero cells / MIC; for MIC: Staphylococcus aureus, read-out: MIC MRSA ATCC 43300
Protocol: as §1, §2, §3, §4

[4] = Cytotoxicity assay (MTS/PMS); assay type: cell-based; conditions: monkey, Vero cells (monkey kidney epithelial cells); 24 h treatment, MTS/PMS, average of three biological replicates; read-out: CC50 against Vero cells
Protocol: The potential cytotoxic eff ect of the test compounds was investigated using Vero cells (monkey kidney epitheli al cells) following est ablished protocols.3 Briefly, Vero cells were plated into 96-well plates supplemented with Dulbecco's Modified Eagle Medium (DMEM) containing 10% fetal bovine serum (FBS). The cells were placed in a humidified 37 °C environment for incubation with 5% CO₂ for 24 h to allow proper adherence and growth. Following the incubation period, the culture medium was replaced with fresh DMEM containing serial dilutions of the test compounds, while the v ehicle alon e w as used as a negative control. The treated cells were incubated for an additional 24 h. To assess cell viability, the MTS/PMS reagent was added to each well and incubat ed for 4 h. A microplate reader (S ynergy H1, BioTek, USA) was used to m easure absorbance at 490 nm. Al l experiments wer e cond ucted usingthree biologi cal replicates .
Ta b l e S2. CC50 valuesa (µg/mL) against Vero cells […]
aValues at which the cell viability (normalized to vehicle control) was 50%. […]

[5] = test system: Methicillin resistant S. aureus (MRSA) USA300; test: Antibacterial MIC assay, serial dilution; assay type: cell-based, Staphylococcus aureus; conditions: for Selectivity index (CC50/MIC) MRSA USA300: CC50 Vero cells / MIC; for MIC: Staphylococcus aureus, read-out: MIC Methicillin resistant S. aureus (MRSA) USA300
[6] = test system: Methicillin resistant Staphylococcus epidermidis (MRSE) ATCC 35984 NRS101; test: Antibacterial MIC assay, serial dilution; assay type: cell-based; conditions: for Selectivity index (CC50/MIC) MRSE 35984: CC50 Vero cells / MIC; for MIC: Staphylococcus epidermidis, read-out: MIC Methicillin resistant Staphylococcus epidermidis (MRSE) ATCC 35984 NRS101
[7] = test system: Vancomycin resistant E. faecalis NR-31972 (VRE); test: Antibacterial MIC assay, serial dilution; assay type: cell-based, Enterococcus faecalis; conditions: for Selectivity index (CC50/MIC) VRE NR-31972: CC50 Vero cells / MIC; for MIC: Enterococcus faecalis, VRE, 24 h, read-out: MIC Vancomycin resistant E. faecalis NR-31972 (VRE)
Protocol: as §1, §2, §3, §4

[8] = test system: Klebsiella pneumoniae ATCC 29665; test: Antibacterial MIC assay, serial dilution; assay type: cell-based; conditions: for Selectivity index (CC50/MIC) K. pneumoniae: CC50 Vero cells / MIC; for MIC: Klebsiella pneumoniae, ATCC29665, range from biological replicates, read-out: MIC K. pneumoniae ATCC-29665
Protocol: as §1, §2, §3, §4

[9] = test system: Enterococcus faecalis ATCC 29212; test: Antibacterial MIC assay, serial dilution; assay type: cell-based; conditions: for Selectivity index (CC50/MIC) E. faecalis 29212: CC50 Vero cells / MIC; for MIC: Enterococcus faecalis, ATCC 29112 / ATCC 29212, 24 h, read-out: MIC E. faecalis ATCC 29112
Protocol: as §1, §2, §3, §4

[10] = test system: Acinetobacter baumannii ATCC 17978; test: Antibacterial MIC assay, serial dilution; assay type: cell-based; conditions: ATCC17978, range from biological replicates
Protocol: as §1, §2, §3, §4

[11] = test system: Pseudomonas aeruginosa; test: Antibacterial MIC assay, serial dilution; assay type: cell-based; conditions: for Selectivity index (CC50/MIC) P. aeruginosa: CC50 Vero cells / MIC; for MIC: Pseudomonas aeruginosa, range from biological replicates, read-out: MIC P. aeruginosa
Protocol: as §1, §2, §3, §4

[12] = test system: Vancomycin resistant Enterococcus faecium NR-31909 (VRE); test: Antibacterial MIC assay, serial dilution; assay type: cell-based; conditions: for Selectivity index (CC50/MIC) VRE NR-31909: CC50 Vero cells / MIC; for MIC: Enterococcus faecium, VRE, 24 h, read-out: MIC Vancomycin resistant Enterococcus faecium NR-31909 (VRE)
Protocol: as §1, §2, §3, §4

[13] = test system: Escherichia coli BAA-2452; test: Antibacterial MIC assay, serial dilution; assay type: cell-based; conditions: BAA2452, read-out: MIC Escherichia coli BAA-2452

| Compound | Selectivity index (CC50/MIC) S. aureus ΔNorA [1] | MIC [1] [µg/mL] | Selectivity index (CC50/MIC) S. aureus 6538P [2] | MIC [2] [µg/mL] | Selectivity index (CC50/MIC) MRSA 43300 [3] | MIC [3] [µg/mL] | CC50 at 24 h [4] [µg/mL] | Selectivity index (CC50/MIC) MRSA USA300 [5] | MIC [5] [µg/mL] | Selectivity index (CC50/MIC) MRSE 35984 [6] | MIC [6] [µg/mL] | Selectivity index (CC50/MIC) VRE NR-31972 [7] | MIC [7] [µg/mL] | Selectivity index (CC50/MIC) K. pneumoniae [8] | MIC [8] [µg/mL] | Selectivity index (CC50/MIC) E. faecalis 29212 [9] | MIC [9] [µg/mL] | MIC [10] [µg/mL] | Selectivity index (CC50/MIC) P. aeruginosa [11] | MIC [11] [µg/mL] | further results |
| --- | --- | --- | --- | --- | --- | --- | --- | --- | --- | --- | --- | --- | --- | --- | --- | --- | --- | --- | --- | --- | --- |
| CN(CC[C@H](N)CC(=O)N[C@H]1C=C[C@H](n2ccc(N)nc2=O)O[C@@H]1C(N)=O)C(=N)N [Blastimidine A1, P10, reference compound] | 0.1 | 128 (≈ 304 µM) | 0.2 | 32 (≈ 75.9 µM) | 0.2 | 32 (≈ 75.9 µM) | 7 (≈ 16.6 µM) | 0.4 | 16 (≈ 38 µM) | 0.2 | 32 (≈ 75.9 µM) | 0.1 | 64 (≈ 152 µM) | 0.2 | 32 (≈ 75.9 µM) | 0.2 | 32 (≈ 75.9 µM) | 32 (≈ 75.9 µM) | 0.1 | 64 (≈ 152 µM) | Selectivity index (CC50/MIC) VRE NR-31909 [12]: 0.2; MIC [12]: 32 µg/mL (≈ 75.9 µM); MIC [13]: 16 µg/mL (≈ 38 µM) |
| CN(CC[C@H](N)CC(=O)N[C@H]1C=C[C@H](n2ccc(NC(=O)c3ccc(N)cc3)nc2=O)O[C@@H]1C(N)=O)C(=N)N [Blastimidine A2] | 0.5 | 32 (≈ 59.2 µM) | 1.0 | 16 (≈ 29.6 µM) | 1.0 | 16 (≈ 29.6 µM) | 16 (≈ 29.6 µM) | 1.0 | 16 (≈ 29.6 µM) | 0.5 | 32 (≈ 59.2 µM) | 0.5 | 32 (≈ 59.2 µM) | 1.0 | 16 (≈ 29.6 µM) | 1.0 | 16 (≈ 29.6 µM) | > 128 | <0.1 | > 128 | Selectivity index (CC50/MIC) VRE NR-31909 [12]: 1.0; MIC [12]: 16 µg/mL (≈ 29.6 µM); MIC [13]: 16 µg/mL (≈ 29.6 µM) |
| CNc1ccc(C(=O)Nc2ccn([C@H]3C=C[C@H](NC(=O)C[C@@H](N)CCN(C)C(=N)N)[C@@H](C(N)=O)O3)c(=O)n2)cc1 [Blastimidine A3] | 1.5 | 16 (≈ 28.8 µM) | 2.3 | 8 to 16 (≈ 14.4 to 28.8 µM) | 1.5 | 16 (≈ 28.8 µM) | 24 (≈ 43.3 µM) | 3.0 | 8 (≈ 14.4 µM) | 1.5 | 16 (≈ 28.8 µM) | 0.8 | 32 (≈ 57.7 µM) | 0.8 | 32 (≈ 57.7 µM) | 1.5 | 16 (≈ 28.8 µM) | > 128 | <0.2 | > 128 | Selectivity index (CC50/MIC) VRE NR-31909 [12]: 2.0; MIC [12]: 8 to 16 µg/mL (≈ 14.4 to 28.8 µM); MIC [13]: 32 µg/mL (≈ 57.7 µM) |
| CC(=O)Nc1ccc(C(=O)Nc2ccn([C@H]3C=C[C@H](NC(=O)C[C@@H](N)CCN(C)C(=N)N)[C@@H](C(N)=O)O3)c(=O)n2)cc1 [Blastimidine A4] | 1.1 | 64 (≈ 110 µM) | 1.1 | 64 (≈ 110 µM) | 1.1 | 64 (≈ 110 µM) | 68 (≈ 117 µM) | 1.1 | 64 (≈ 110 µM) | 1.1 | 64 (≈ 110 µM) | 1.1 | 64 (≈ 110 µM) | 3.2 | 16 to 32 (≈ 27.5 to 54.9 µM) | 2.1 | 32 (≈ 54.9 µM) | > 128 | <0.5 | > 128 | Selectivity index (CC50/MIC) VRE NR-31909 [12]: 2.1; MIC [12]: 32 µg/mL (≈ 54.9 µM); MIC [13]: 32 µg/mL (≈ 54.9 µM) |
